Patent US10806794B2, “Protease inhibitors having enhanced features” (priority 2008, dated 2020)
Several values for one entry are separate records, joined by “and”; a condition that tells them apart may be missing. Identical values can stand only once. Like-named read-outs stand apart in the source and are kept apart here.

How the values were obtained:
[1] = molecular target: hERG (Homo sapiens (Human), UniProt Q12809); assay: hERG current (IKr) in HEK-293 cells, whole-cell patch clamp; format: cell-based; conditions: 0.1 Hz; for IC50: hERG current in HEK-293 cells, whole-cell patch clamp, read-out: IC50 (Block of hERG at 0.1 Hz); for inhibition at 10 µM / inhibition at 30 µM / inhibition at 100 µM: human, HEK-293 cells stably expressing hERG, HEK-293 cells, read-out: Mean % inhibition ± SEM (Block of hERG at 0.1 Hz)
Sequence of hERG (Q12809 whole entry): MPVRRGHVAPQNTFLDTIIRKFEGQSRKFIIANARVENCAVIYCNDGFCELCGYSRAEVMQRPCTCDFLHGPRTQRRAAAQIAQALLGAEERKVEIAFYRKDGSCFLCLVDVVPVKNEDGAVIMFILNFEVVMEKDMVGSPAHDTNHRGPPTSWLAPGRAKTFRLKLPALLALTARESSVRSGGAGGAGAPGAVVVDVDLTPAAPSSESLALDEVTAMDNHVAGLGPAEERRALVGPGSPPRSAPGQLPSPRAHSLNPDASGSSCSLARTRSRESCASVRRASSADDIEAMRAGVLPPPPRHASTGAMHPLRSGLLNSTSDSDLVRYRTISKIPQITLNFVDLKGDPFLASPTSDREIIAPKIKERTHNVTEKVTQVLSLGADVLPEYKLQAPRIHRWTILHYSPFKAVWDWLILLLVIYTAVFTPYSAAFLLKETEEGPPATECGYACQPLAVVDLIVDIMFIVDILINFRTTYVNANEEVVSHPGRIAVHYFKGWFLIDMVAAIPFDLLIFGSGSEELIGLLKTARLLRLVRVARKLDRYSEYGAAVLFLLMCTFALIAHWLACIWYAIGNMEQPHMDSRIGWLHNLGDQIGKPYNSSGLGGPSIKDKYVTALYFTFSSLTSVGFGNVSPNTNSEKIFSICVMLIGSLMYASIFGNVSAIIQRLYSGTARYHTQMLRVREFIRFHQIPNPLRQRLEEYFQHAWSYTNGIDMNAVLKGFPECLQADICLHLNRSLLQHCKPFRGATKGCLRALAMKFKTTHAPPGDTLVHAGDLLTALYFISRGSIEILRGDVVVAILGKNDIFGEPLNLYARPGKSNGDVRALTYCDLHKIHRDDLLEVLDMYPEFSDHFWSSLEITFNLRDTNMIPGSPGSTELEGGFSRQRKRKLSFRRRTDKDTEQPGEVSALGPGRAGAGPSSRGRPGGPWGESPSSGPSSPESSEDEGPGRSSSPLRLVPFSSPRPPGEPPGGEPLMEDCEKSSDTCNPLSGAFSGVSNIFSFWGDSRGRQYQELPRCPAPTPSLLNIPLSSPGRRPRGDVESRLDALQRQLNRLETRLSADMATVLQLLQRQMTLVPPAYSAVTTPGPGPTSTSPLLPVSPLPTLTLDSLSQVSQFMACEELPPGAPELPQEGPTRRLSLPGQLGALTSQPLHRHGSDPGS
Description: Currents were measured using the whole-cell variant of the patch clamp method. Glass pipettes were produced with tip openings of […] for K current recordings. Pipette tip resistance was approximately 1.0 to 2.0 MΩ when filled with K internal solutions (130 mM KCl, 5 mM MgCl2, 10 mM HEPES, 5 mM EGTA, 5 mM ATP-Na2, pH7.2). An Axopatch 1-B amplifier (Axon Instruments, Foster City, Calif.) was used for whole-cell voltage clamping. Voltage clamp pulses were controlled by pClamp software (ver 9.2, Axon Instruments).
After rupture of the cell membrane, current kinetics and amplitudes were allowed to stabilize as the cell was dialyzed with internal solution and paced at 0.1 Hz (−75 mV; 500 msec, +10 mV; 500 msec, −40 mV; typically 2-4 minutes). Currents were considered stable if the currents elicited by a series of voltage pulses given at 0.1 Hz were superimposed. Peak hERG current was measured as the maximum outward deflection of the tail current elicited upon return to −40 mV.
Data are presented in Table 19 as the percent reduction of current amplitude. This was measured as current reduction after a steady-state effect had been reached in the presence of drug relative to current amplitude before drug was introduced (control). Each cell served as its own control.

[2] = Plasma protein binding by equilibrium dialysis, human plasma; format: in vitro ADME; conditions: human plasma, 5 μM, fraction unbound; read-out: Plasma Protein Binding Fu ± SD
Outline: (§1)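 Test compound solutions (5 μM, final DMSO 0.5%) are made in buffer and in plasma of the relevant species. Plasma solution goes on one membrane side, plasma-free solution on the other. After 2 h at 37 °C, both sides are analysed by LC-MS/MS.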

[3] = tested on: Caco-2 cells; assay: in vitro
Description: Absorption properties of various compounds were measured using bi-directional permeability assays in Caco-2 cells. […] The efflux ratio is calculated as the ratio of the Papp(B→A)/Papp(A→B).

[4] = Metabolic stability in rat liver microsomes; format: in vitro ADME
Text: Metabolic stability of test compounds was studied in rat liver microsomes.

[5] = tested on: CEM-SS cells; assay: CEM-SS macromolecule synthesis (tritiated precursor incorporation); format: cell-based; conditions: for Thymidine incorportation (CEM-SS) TC50: DNA synthesis; for Uridine incorporation (CEM-SS) TC50: RNA synthesis; for Leucine Incorporation (CEM-SS) TC50: protein synthesis
Description: Cellular macromolecule synthesis was evaluated using tritiated precursor incorporation assays. CEM-SS cells (2.5×10^3 cells/well) were cultured in the presence or absence of test compound for 7 days at 37 C, 5% CO2 in a 96-well microtiter plate. On day 6 of the incubation, 1 uCi of [methyl-3H]-thymidine for DNA synthesis, [5-3H]-uridine for RNA synthesis, or [3,4,5-3H]-leucine for protein synthesis was added to compound-treated cells, and the plate was further incubated for 16 hours. The cells were transferred to a glass fiber filtermat using an Inotech cell harvester. The filtermats were washed with distilled water then sealed in a bag with scintillation fluid. Incorporated radioactivity was measured using a Wallac scintillation counter.

[6] = molecular target: CYP1A2 (Homo sapiens (Human), UniProt P05177); assay: CYP450 inhibition in human liver microsomes: CYP1A2
Sequence of CYP1A2 (P05177 whole entry): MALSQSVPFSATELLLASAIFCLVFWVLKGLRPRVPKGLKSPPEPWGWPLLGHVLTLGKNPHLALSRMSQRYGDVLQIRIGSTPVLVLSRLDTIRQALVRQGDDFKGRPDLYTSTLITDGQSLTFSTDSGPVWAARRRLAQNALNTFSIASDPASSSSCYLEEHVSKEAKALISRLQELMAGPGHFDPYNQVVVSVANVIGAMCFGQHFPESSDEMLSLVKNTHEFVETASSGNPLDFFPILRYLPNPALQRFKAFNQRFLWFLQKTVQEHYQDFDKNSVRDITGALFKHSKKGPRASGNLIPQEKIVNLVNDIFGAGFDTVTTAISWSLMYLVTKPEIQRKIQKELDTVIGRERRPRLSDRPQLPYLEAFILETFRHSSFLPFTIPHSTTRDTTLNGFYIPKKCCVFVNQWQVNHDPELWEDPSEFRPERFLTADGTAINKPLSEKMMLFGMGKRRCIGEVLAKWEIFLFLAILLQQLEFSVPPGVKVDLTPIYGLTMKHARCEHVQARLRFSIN

[7] = in vitro; format: in vitro ADME; conditions: dog, microsomes
Text: Metabolic stability of test compounds was studied in dog liver microsomes.

[8] = tested on: human monocytes; assay: Toxicity in human monocytes in the absence of viral infection; conditions: monocyte/macrophages, absence of viral infection
Description: Fresh human monocytes were infected with the BaL strain of HIV-1 in the presence of test compounds. After seven days in culture, HIV-1 replication was evaluated by measurement of HIV-1 viral capsid protein (p24) in the tissue culture supernatant (Table 7). […] A TI was calculated as described above using TC50 values derived from cell toxicity data in response to test compounds in the absence of viral infection.

[9] = tested on: monocyte-derived dendritic cells; assay: Cytotoxicity in monocyte-derived dendritic cells (XTT); format: cell-based, human
Text: Cell viability is directly proportional to the amount of reduced XTT product formed.

[10] = molecular target: CYP3A4 (Homo sapiens (Human), UniProt P08684); assay: CYP450 inhibition in human liver microsomes: CYP3A4;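 also: incubation at 37 °C started by adding 1 mM NADPH, with formation of the probe metabolite measured via LC-MS/MS or fluorescent detection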
Sequence of CYP3A4 (P08684 whole entry): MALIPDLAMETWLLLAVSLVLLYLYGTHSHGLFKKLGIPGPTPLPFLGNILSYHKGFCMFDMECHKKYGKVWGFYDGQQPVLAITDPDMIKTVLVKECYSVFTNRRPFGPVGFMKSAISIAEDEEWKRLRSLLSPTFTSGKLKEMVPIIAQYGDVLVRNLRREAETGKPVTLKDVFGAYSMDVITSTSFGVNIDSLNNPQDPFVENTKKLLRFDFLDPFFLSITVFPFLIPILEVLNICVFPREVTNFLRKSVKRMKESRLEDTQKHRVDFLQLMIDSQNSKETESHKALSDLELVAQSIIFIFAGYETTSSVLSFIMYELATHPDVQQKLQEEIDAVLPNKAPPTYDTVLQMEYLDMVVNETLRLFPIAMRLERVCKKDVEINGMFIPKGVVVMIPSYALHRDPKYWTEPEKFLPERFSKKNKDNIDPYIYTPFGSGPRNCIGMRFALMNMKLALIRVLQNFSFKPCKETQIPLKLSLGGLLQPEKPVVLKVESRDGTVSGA

[11] = tested on: cynomolgus monkey hepatocytes; assay: Metabolic stability in cynomolgus monkey hepatocytes; format: in vitro ADME; conditions: 0.1 uM
[12] = tested on: human plasma proteins; assay: Plasma protein binding by equilibrium dialysis, human plasma; format: in vitro ADME; conditions: human plasma, 5 μM, fraction unbound
Outline: as §1

[13] = tested on: beagle dog hepatocytes; assay: Metabolic stability in beagle dog hepatocytes; format: in vitro ADME; conditions: 0.1 uM
[14] = tested on: HIV-1 HT/92/599; assay: HIV-1 reverse transcriptase activity after infection of fresh human PBMCs; format: cell-based
Outline: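 PHA-P/IL-2-stimulated fresh human PBMCs infected with HIV-1; supernatant reverse transcriptase activity measured by tritiated TTP incorporation on poly rA/oligo dT, 90 min at 37° C. Toxicity from 7-day uninfected PBMC culture read by XTT; TI = TC50/EC50.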

[15] = read-out: CYP3A4 IC50 Midazolam, probe substrate midazolam
[16] = read-out: CYP3A4 IC50 Testosterone, probe substrate testosterone
[17] = Caco-2 monolayers, apical to basolateral
[18] = read-out: PBMC/HIV-1HT/92/599 EC50 ± SD, seven days, reverse transcriptase activity

SMILES	fraction unbound at 2 h, 5 μM [2]	Thymidine incorportation (CEM-SS) TC50 [5]	Uridine incorporation (CEM-SS) TC50 [5]	Leucine Incorporation (CEM-SS) TC50 [5]	TC50 [8]	TC50 [9]	IC50 [10, 15]	IC50 [10, 16]	CLint ± SEM [11]	t1/2 [11]	Plasma Protein Binding Fu ± SD [12]	A→B, ×10^−6 [3, 17]	EC50 [14, 18]	other results
COC(=O)N[C@H](C(=O)N[C@@H](Cc1ccccc1)[C@@H](O)CN(Cc1ccc(-c2ccccn2)cc1)NC(=O)[C@@H](NC(=O)OC)C(C)(C)C)C(C)(C)C [Atazanavir, reference compound]	0.106 ± 5.25e-05	288.3 µM	281.4 µM	259.6 µM										IC50 [1]: 63.9 µM; inhibition at 10 µM [1]: 15.6 ± 1.9%; inhibition at 30 µM [1]: 32.5 ± 3.7%; inhibition at 100 µM [1]: 60.5 ± 2.5%; A→B, ×10^−6 ([3]; human, Caco-2): 2.04 cm/s; half-life [4]: 24.2 min; IC50 [6]: 20.6 µM; half-life [7]: 51.8 min; microsomal CLint [7]: 26.8 µL/min/mg
CC(C)CN(C[C@@H](O)[C@H](Cc1ccccc1)NC(=O)O[C@H]1CO[C@H]2OCC[C@H]21)S(=O)(=O)c1ccc(N)cc1 [Darunavir, reference compound]	0.144 ± 0.0051	223.2 µM	>400 µM	285.8 µM	>200.0 µM	>200 µM								
COCCOCCOCCOc1ccc(C[C@H](NC(=O)O[C@H]2CO[C@H]3OCC[C@H]32)C(O)CN(CC(C)C)S(=O)(=O)c2ccc(N)cc2)cc1 (stereo partly shown) [mPEG3-O-Darunavir]		262.9 µM	>400 µM	>400 µM	>200.0 µM	>200 µM	2.59 µM	4.9 µM	8.53 ± 0.563 μL/min/10^6 cells	2.72 h	0.274 ± 0.0194	0.51 cm/s	0.027 ± 0.006 µM	CLint ± SEM [13]: 15.5 ± 0.000361 μL/min/10^6 cells; t1/2 [13]: 89.5 min; Efflux ratio (B→A/A→B) ([3]; Caco-2 monolayers): 32
COCCOCCOCCOCCOCCNc1ccc(S(=O)(=O)N(CC(C)C)CC(O)[C@H](Cc2ccccc2)NC(=O)O[C@H]2CO[C@H]3OCC[C@H]32)cc1 (stereo partly shown) [mPEG5-N-Darunavir]					>200.0 µM	>200 µM	2.7 µM	4 µM	26.5 ± 0.942 μL/min/10^6 cells	0.872 h	0.338 ± 0.0368	1.07 cm/s	< 0.02 µM and 0.033 µM	Efflux ratio (B→A/A→B) ([3]; Caco-2 monolayers): 21
COCCOCCOCCOCCOCCOc1ccc(C[C@H](NC(=O)O[C@H]2CO[C@H]3OCC[C@H]32)C(O)CN(CC(C)C)S(=O)(=O)c2ccc(N)cc2)cc1 (stereo partly shown) [mPEG5-O-Darunavir]		165.7 µM	>400 µM	>400 µM	>200.0 µM	>200 µM	> 2.5 µM	> 25 µM			0.448 ± 0.0195		0.09 ± 0.008 µM	CLint ± SEM [13]: 4.93 ± 0.000253 μL/min/10^6 cells; t1/2 [13]: 281 min
COCCOCCOCCOCCOCCOCCOCCNc1ccc(S(=O)(=O)N(CC(C)C)CC(O)[C@H](Cc2ccccc2)NC(=O)O[C@H]2CO[C@H]3OCC[C@H]32)cc1 (stereo partly shown) [mPEG7-N-Darunavir]					>200.0 µM	>200 µM	5.4 µM	12.9 µM	0.286 ± 0.504 μL/min/10^6 cells	80.83 h	0.364 ± 0.0298	0.32 cm/s	0.073 ± 0.012 µM	
COCCOCCOCCOC(=O)NC(C(=O)NC(Cc1ccccc1)C(O)CN(Cc1ccc(-c2ccccn2)cc1)NC(=O)C(NC(=O)OC)C(C)(C)C)C(C)(C)C (stereo not shown) [mono-mPEG3-Atazanavir, {1-[N′-[2-Hydroxy-3-(2-{2-[2-(2-methoxy-ethoxy)-ethoxy]-ethoxycarbonylamino}-3,3-dimethyl-butyrylamino)-4-phenyl-butyl]-N′-(4-pyridin-2-yl-benzyl)-hydrazinocarbonyl]-2,2-dimethyl-propyl}-carbamic Acid Methyl Ester]	0.217 ± 0.000495	396.2 µM	396.6 µM	>400 µM					21.0 ± 0.00203 μL/min/10^6 cells	1.1 h			0.03 µM and 0.0204 µM and 0.02 µM and 0.0187 µM	IC50 ([10]; CYP3A4 IC50 Midazolam, probe substrate midazolam): 2.85 µM; IC50 ([10]; CYP3A4 IC50 Testosterone, probe substrate testosterone): 12.8 µM; IC50 [1]: 88.3 µM; inhibition at 10 µM [1]: 5.4 ± 0.6%; inhibition at 30 µM [1]: 23.7 ± 3.7%; inhibition at 100 µM [1]: 53.1 ± 2.6%; EC50 ([14]; Human immunodeficiency virus 1, PBMC, 168 h, read-out: PBMC/HIV-1HT/92/599 EC50 ± SD, seven days, reverse transcriptase activity): < 0.02 µM; half-life [4]: 26.8 min; IC50 [6]: > 25 µM; half-life [7]: 7.42 min; microsomal CLint [7]: 187 µL/min/mg
